Tested on: rat intestine (jejunum, ileum, colon)
Test: Ussing chamber intestinal permeability of NOVO
Assay type: in vitro ADME
Conditions: jejunum vs ileum and colon; Figure 1
Protocol: The intestinal permeability of CAP in vitro was performed using Ussing chamber. […] NOVO was also prepared in HEPES buffer to yield final concentration at 5, 10, 25, 50, 100, and 200 μM. Animal intestinal segments for the permeability study were prepared in accordance with the experimental method as described previously ([Yodoya et al., 1994]; [Wallon et al., 2005]; [Duan et al., 2013]). Briefly, male SD rats, weighting 240–260 g, were fasted for 18 h before each experiment and anesthetized by injecting 10 % chloral hydrate anesthesia (i.p.). Different portions of the rat intestine were excised and flushed with HEPES buffer, including jejunum (after the first 5 cm of the top of small intestine), ileum (the distal part of small intestine) and colon (proximal to cecal-colonic junction), and incubated in the ice-cold HEPES buffer. Next, 3–4 cm of the intestine was clipped, and the serosa was removed rapidly on an ice-cold glass. The intestinal segments were fixed in the Ussing chamber. Finally, 7 mL of HEPES buffer was added to the receiving side while an equal volume of drug solution to the dosing side. All the chambers were maintained at 37°C by using a warm water-circulating pump and a mixture of 95% O2 and 5% CO2 aerated to ensure the activity of the membrane. […]

With `CO[C@@H]1[C@@H](OC(N)=O)[C@@H](O)[C@H](Oc2ccc3c(O)c(NC(=O)c4ccc(O)c(CC=C(C)C)c4)c(=O)oc3c2C)OC1(C)C` [NOVO, novobiocin] the “permeability of NOVO across intestinal segments” value was “much greater in the jejunum than in the ileum and colon”.

Reference: PMC6196238, “Novobiocin, a Newly Found TRPV1 Inhibitor, Attenuates the Expression of TRPV1 in Rat Intestine and Intestinal Epithelial Cell Line IEC-6” (Frontiers in Pharmacology, 2018)
